This is an account of results in ChEMBL document CHEMBL3997819, “Synthesis and biological evaluation of heterocyclic analogues of pregnenolone as novel anti-osteoporotic agents” (2017).

Calls of active or inactive are those of the source. No cut-off for these calls is given here.

Assay [1] deals with Calvarial osteoblast. Kind of assay: Antiosteoporotic activity in mouse calvarial osteoblasts assessed as enhancement in ALP activity at 1 pM to 1 uM after 48 hrs by PNPP substrate-based spectrophotometric method relative to control. The format is functional, cell-based.
Assay [2] relates to Calvarial osteoblast. Kind of assay: Antiosteoporotic activity in mouse calvarial osteoblasts assessed as upregulation of Runx-2 mRNA levels at 1 pM measured at 24 hrs by real-time quantitative PCR method relative to control. Type of assay: functional.
Assay [3] has as its system Calvarial osteoblast. In words: Antiosteoporotic activity in mouse calvarial osteoblasts assessed as enhancement in ALP activity at 1 nM to 1 uM after 48 hrs by PNPP substrate-based spectrophotometric method relative to control. The format is functional, cell-based.
Assay [4] has as its system Calvarial osteoblast. In words: Antiosteoporotic activity in mouse calvarial osteoblasts assessed as enhancement in ALP activity at 100 pM after 48 hrs by PNPP substrate-based spectrophotometric method relative to control. Type of assay: functional.
Assay [5] relates to Calvarial osteoblast. Kind of assay: Antiosteoporotic activity in mouse calvarial osteoblasts assessed as upregulation of BMP-2 mRNA levels at 1 pM measured at 24 hrs by real-time quantitative PCR method relative to control. Type of assay: functional.
Assay [6] has as its system Calvarial osteoblast. Kind of assay: Antiosteoporotic activity in mouse calvarial osteoblasts assessed as enhancement in ALP activity at 1 pM after 48 hrs by PNPP substrate-based spectrophotometric method relative to control. The format is functional.
In assay [7] the test system is Calvarial osteoblast. In words: Antiosteoporotic activity in mouse calvarial osteoblasts assessed as increase in mineral nodule formation at 1 to 100 pM after 21 days by alizarin red-S dye-based optical densitometry relative to control. Type of assay: functional, cell-based.
For assay [8], the system named is Calvarial osteoblast. In words: Antiosteoporotic activity in mouse calvarial osteoblasts assessed as upregulation of OCN mRNA levels at 1 pM measured at 24 hrs by real-time quantitative PCR method relative to control. Type of assay: functional.

Consider `C/C(=N\O)[C@H]1CC[C@H]2[C@@H]3CC=C4C[C@@H](O)CC[C@]4(C)[C@H]3CC[C@]12C`, for which the outcome in assay [1] was Active.
`C[C@]12CC[C@H]3[C@@H](CC=C4C[C@@H](O)CC[C@@]43C)[C@@H]1CC[C@@H]2c1ccc2cc(Br)cc(Br)c2n1`: the result in assay [1] was Active.
Take `CC(=O)O[C@H]1CC[C@@]2(C)C(=CC[C@H]3[C@@H]4CC[C@H](C(C)=O)[C@@]4(C)CC[C@@H]32)C1`: the result in assay [1] was Active.
In the case of `C[C@]12CC[C@H]3[C@@H](CC=C4C[C@@H](O)CC[C@@]43C)[C@@H]1CC[C@@H]2c1ccc2ccccc2n1`, the figures for the “fold change (FC)” value in assay [2], in assay [5] and in assay [8] were 1.5, 2 and 3, respectively. Besides, the result in assay [3] and in assay [7] was Active. Further, the Activity in assay [4] is on record as 85%; in assay [6], 100%.
